Results on 58 molecules are retold here after the METLIN SMRT retention time set (Domingo-Almenara et al. 2019).

This data set can be described thus: gradient 5% acetonitrile 3 min, to 50% in 2 min, to 85% in 15 min, held 3 min, 100 µL/min. Conditions: column: Zorbax Extend-C18 2.1 x 50 mm; eluents: water / acetonitrile, 0.1% formic acid. In short, it runs like this: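 Pure standards were run in mixtures of ~100 molecules by HPLC coupled to a quadrupole time-of-flight mass spectrometer. The column was a Zorbax Extend-C18 (2.1 × 50 mm, 1.8 μm) at 100 μL/min, with water and acetonitrile each containing 0.1% formic acid, in positive and negative ionization mode. Dead and dwell volumes were 40 μL and 900 μL. Retention time was taken from computationally picked adduct peaks, each manually inspected, with data collected over 3 months.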
For the molecule `Cc1ccc(CNC(=O)C2(C)CN(S(C)(=O)=O)CC(=O)N2c2ccc(F)cc2)cc1` (stereo not drawn), the RP-LC retention time is 746 s.
`O=C(NCc1cccc(F)c1)N1CCC(OC2CCN(Cc3ccccc3)CC2)CC1` came in with an RP-LC retention time of 589 s.
As to `Nc1nc(N2CCC3(CC2)OCCO3)ncc1S(=O)(=O)c1ccc(Cl)cc1`, the RP-LC retention time was determined as 896 s.
`COc1ccc(C(=O)N2CCC(c3noc(-c4ccncc4)n3)C2)cn1` (stereo not drawn) yielded an RP-LC retention time of 673 s.
In turn, `c1cncc(-c2nc(CC3CCCNC3)no2)c1` (stereo not drawn) registered an RP-LC retention time of 564 s.
Molecule `O=c1n(Cc2cc(F)cc(F)c2)nc2c(-c3nc(-c4cccc(F)c4)no3)cccn12` showed an RP-LC retention time of 1050 s.
To `NC1(C(=O)N[C@@H](CCO)c2ccc(Cl)cc2)CCN(c2ncnc3[nH]ccc23)CC1` belongs 610 s.
As for `COCCCNC(=O)CN1c2ccccc2NC2=C(C(=O)CC(C)(C)C2)C1c1ccco1` (stereo not drawn), the RP-LC retention time is 725 s.
`CN1C(=O)Cc2cc(C(=O)NCc3ccc(F)c(Cl)c3)ccc21` registered an RP-LC retention time of 766 s.
Consider `O=C(COc1cccc(Cl)c1)N1CCN(c2nc(CN3CCOCC3)cs2)CC1`, for which the RP-LC retention time is 721 s.
`Cc1ccc2c(c1)N(S(C)(=O)=O)CCC(C(=O)NCc1ccccc1C)O2` (stereo not drawn) gave an RP-LC retention time of 900 s.
Molecule `O=C(Nc1cc(C(F)(F)F)ccc1Cl)c1ccc(S(=O)(=O)N2CCCCC2)cc1` displayed an RP-LC retention time of 1080 s.
In turn, `O=C(/C=C/c1ccccc1)NC(Cc1ccccc1)C(=O)N1CCN(c2ccccn2)CC1` (stereo not drawn) came in with an RP-LC retention time of 692 s.
The result for `Fc1ccc(-c2noc(-c3nnc(NCCCN4CCOCC4)c4ccccc34)n2)cc1` reads 700 s; that for `COc1ccccc1C(=O)N1C[C@H](c2nc(-c3cccnc3)no2)[C@@H](C)C1`, 758 s; that for `Cc1cccc(CCNC(=O)Cc2csc3nc(-c4ccc(C)c(C)c4)cn23)c1`, 911 s.
To `COc1ccc2oc(-c3noc(CNC(C)=O)n3)c(C)c2c1` belongs 750 s; to `CCn1cccc1-c1nc(C)c(C(=O)Nc2ccc(C(C)C)cc2)s1`, 1310 s; to `CCCCOC(=O)COc1cc(O)c2c(=O)cc(-c3ccccc3)oc2c1`, 1230 s.
In turn, `c1ccc(Cn2cc(-c3noc(-c4ccccc4)n3)nn2)cc1` displayed an RP-LC retention time of 814 s.
Consider `CCn1c(=O)c(N2CCCC(C(=O)NCCc3c[nH]c4ccc(OC)cc34)C2)nc2ccccc21` (stereo not drawn), for which the RP-LC retention time was determined as 907 s.
Consider `Cc1ccc(-n2c(=O)c3c(cc(C)n3C)n(CC(=O)Nc3cccc(C)c3)c2=O)cc1`, for which the RP-LC retention time was 905 s.
The result for `O=c1ccc(N2CCCN(S(=O)(=O)c3ccc(F)cc3)CC2)nn1-c1ccc(Cl)cc1` reads 926 s; that for `Cc1oc2ccn(Cc3ccccc3F)c(=O)c2c1C(=O)NCc1cccc(F)c1`, 726 s; that for `CN(C)c1ccc(NC(=O)Cn2cccc2-c2nc(-c3ccc4c(c3)OCO4)no2)cc1`, 752 s.
Take `CCCNC(=O)C1CC(=O)N(c2ccc3c(c2)CCN3C(=O)C2CC2)C1` (stereo not drawn): the RP-LC retention time worked out at 659 s.
With `Cc1cc2c(c(=O)n(-c3ccc(F)cc3)c(=O)n2CC(=O)Nc2cccc(F)c2)n1C`, the RP-LC retention time worked out at 840 s.
Turning to `COc1cc2oc3cc(C)oc(=O)c3c2cc1OC`, the RP-LC retention time was found to be 841 s.
`CCN(C(=O)c1cc2c(s1)N(C)CCCC2)C(C)C` had an RP-LC retention time of 1020 s.
`O=C(NCCc1nc(-c2ccccc2)no1)c1sc2cccc(Cl)c2c1Cl` yielded an RP-LC retention time of 1200 s.
Molecule `Cc1ccn2c(NC(=O)C(C)(C)Oc3ccc(Cl)cc3)c(-c3ccccc3)nc2c1` registered an RP-LC retention time of 804 s.
For the molecule `Fc1ccc(-c2csc(Nc3ccccn3)n2)cc1`, the RP-LC retention time came out at 896 s.
With `CCOC(=O)c1coc(NC(=O)Nc2cccs2)n1`, the RP-LC retention time turned out to be 706 s.
The molecule `CCOc1ccccc1NC(=O)CN1CCC(c2nnc(-c3ccco3)s2)CC1` returned an RP-LC retention time of 594 s.
`CCCN1CCN(C(=O)CSCc2nc3cccnc3n2C2CCCCC2)CC1` gave an RP-LC retention time of 638 s.
For the molecule `O=C(NCC1CC1)c1cn(-c2ccc(-c3nc(C4CC4)no3)cn2)cn1`, the RP-LC retention time stood at 843 s.
For `O=S1(=O)N=CN(c2ccc3c(c2)CCC3)c2ncccc21`, the RP-LC retention time stood at 862 s.
On to `CCCS(=O)(=O)c1nc2ccc(NS(=O)(=O)c3ccc(C)cc3C)cc2s1`, for which the RP-LC retention time worked out at 999 s.
The molecule `Cc1ccc(Sc2ccc(N3CCC(C(=O)N4CCN(c5ccccn5)CC4)CC3)nn2)cc1` showed an RP-LC retention time of 646 s.
In turn, `COc1ccc(OC)c(N2CC(c3nc4ccccc4n3CCN3CCOCC3)CC2=O)c1` (stereo not drawn) showed an RP-LC retention time of 597 s.
To `COc1ccc(-n2ncc3c(=O)n(Cc4nc(-c5ccc(F)cc5)no4)cnc32)cc1` belongs 1030 s.
In the case of `Cc1cc(C)cc(NC(=O)CN2CCC(C(=O)NCc3ccccn3)CC2)c1`, the RP-LC retention time stood at 548 s.
The molecule `CC(C)NC(=O)N1CCCC(c2cccc(C(=O)NCCN3CCCC3)c2)C1` (stereo not drawn) came in with an RP-LC retention time of 862 s.
In turn, `CC(NC(=O)C1CCN(C(=O)c2ncn3c2COC(c2ccccc2)C3)CC1)c1ccc(F)cc1` (stereo not drawn) gave an RP-LC retention time of 848 s.
To `CCOc1ccc(-c2noc(Cn3ncn4nc(-c5ccc(F)cc5)cc4c3=O)n2)cc1OC` belongs 1070 s; to `Cc1ccc(N2CCC(NC(=O)Nc3cccc(C)c3C)C2=O)cc1C` (stereo not drawn), 906 s; to `O=C(Nc1cccc(-c2ccc(N3CCOCC3)nn2)c1)Nc1ccccc1C(F)(F)F`, 750 s.
As to `O=C(Cn1ncc2c(N3CCN(c4ccccn4)CC3)ncnc21)N1CCN(c2ccccc2)CC1`, the RP-LC retention time turned out to be 603 s.
The molecule `COC(=O)c1ncn2c1C(=O)N(c1ccc(C)c(C)c1)C(C)(C(=O)NCc1ccccc1)C2` (stereo not drawn) gave an RP-LC retention time of 735 s.
For the molecule `Cn1cc(-c2cc3n(n2)CCCN3C(=O)CCC(=O)NCc2ccccc2)c2ccccc21`, the RP-LC retention time came to 804 s.
In turn, `CCc1noc(-c2ccc(SCC(=O)N3CCC(C(N)=O)CC3)nc2)n1` had an RP-LC retention time of 639 s.
On to `CSc1cccc(NC(=O)Cn2nc3n(c2=O)CCCCC3)c1`, for which the RP-LC retention time is 707 s.
The result for `O=C(Nc1cccc(-c2nc3ncccc3o2)c1)[C@@H]1OCCN(C2CC2)[C@H]1c1ccccc1` reads 678 s; that for `COc1cccc(N2CCN(C(=O)c3ccc4c(c3)NC(=O)C3CCCCN43)CC2)c1` (stereo not drawn), 592 s; that for `Cc1ccc(-c2c(N3CCN(c4ccccn4)CC3)c(=O)c2=O)cc1C`, 708 s.
Molecule `COC(=O)c1c(C)[nH]c(C(=O)N2CCC(CC(=O)NC(C)c3ccccc3)CC2)c1C` (stereo not drawn) had an RP-LC retention time of 762 s.
As to `Fc1ccc(-c2noc(-c3nnc(NCCN4CCOCC4)c4ccccc34)n2)cc1`, the RP-LC retention time came to 701 s.
Turning to `Cc1c(NC(=O)c2ccccc2-c2ccccc2C(=O)O)c(=O)n(-c2ccccc2)n1C`, the RP-LC retention time was 681 s.
